Consider 22 molecules from US12492182B2, “Hydroxytriazine compounds and pharmaceutical use thereof” (Japan Tobacco Inc., priority 2015, dated 2025).

The test system of test [1] is A549 cell. Put plainly: Evaluation of PGE2 production inhibitory action using A549 cell (IL-1β stimulated). The class given is cell-based, human. The procedure: Experimental Example 2: Evaluation of PGE2 Production Inhibitory Action Using A549 Cell
A549 cell (Japan Health Sciences Foundation Research Resources Bank), which is cell line derived from humans lung cancer, was suspended in assay medium (Ham's F-12K (Wako, #080-08565) containing 2% FBS (Hyclone Laboratories, #SH30910.03), 100 units/mL penicillin and 100 μg/mL streptomycin (Invitrogen, #15140-122)), the suspension was added at 2.5×10^4 cells/100 μL/well to 96 well flat-bottom plate (Corning, #353072), and the plate was left standing for 20 hr in a CO2 incubator set at 37° C. The test article was serially diluted with DMSO (Nacalai Tesque, #13407-45), and then 20-fold diluted with the assay medium to prepare a test article solution having a ten-fold concentration of the final concentration. The final DMSO concentration during the reaction was set to 0.5% (v/v). The medium was removed from the plate in which the cell was added, new assay medium was added at 160 μL/well to the plate, and the plate was left standing for 10 min in a CO2 incubator. Then, the test article solution was added at 20 μL/well to the plate, and the plate was left standing for 30 min in a CO2 incubator. Next, recombinant humans IL-1β (R&D Systems, #201-LB) as a stimulant to enhance PGE2 production due to increase of mPGES-1 mRNA expression was added at 20 μL/well (the final concentration was 1 ng/mL) to the plate, and the plate was left standing for 18 hr in a CO2 incubator. The supernatant was collected at 180 μL/well, and the PGE2 concentration was measured using Prostaglandin E2 assay (CISbio Bioassays, #62P2APEC) according to the manual. As the reference standard for analytical curve, PGE2 (Cayman Chemical, #14010) was used. Using EnVision 2104 (Perkin Elmer), the time-resolved fluorescence at 620 nm and 665 nm relative to the excitation light at 337 nm was measured. PGE2 concentration was extrapolated from the PGE2 analytical curve. Average of the PGE2 concentrations of the respectively-treated wells was used as the data.
The PGE2 production inhibitory activity (%) of the test article was calculated according to the following Formula 3. PGE2 production inhibitory activity(%)=(PGE2A−PGE2X)/(PGE2A−PGE2B)×100 [Formula 3] • PGE2A: PGE2 concentration of vehicle-treated well • PGE2B: PGE2 concentration of blank well (no addition of recombinant humans IL-1B) • PGE2X: PGE2 concentration of test article-treated well

The target of test [2] is T1, human mPGES-1 (Homo sapiens, UniProt O14684).
T1 construct: made in house; host or cells: Chinese hamster ovary-derived cells (FreeStyle CHO-S), transient transfection of pcDNA3.1(+)/human mPGES-1; microsome fraction
T1 sequence (O14684 1-152): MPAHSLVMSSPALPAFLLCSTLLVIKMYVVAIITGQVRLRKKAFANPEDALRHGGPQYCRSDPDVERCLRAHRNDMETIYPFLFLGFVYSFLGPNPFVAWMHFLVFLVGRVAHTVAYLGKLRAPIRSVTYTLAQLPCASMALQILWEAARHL
Put plainly: Evaluation of human mPGES-1 enzyme inhibitory activity (HTRF measurement of PGE2). Particulars: IC50 value; microsome fraction of CHO-S cells expressing human mPGES-1, PGH2 substrate, PGE2 by HTRF; read-out: humans mPGES-1 enzyme inhibitory activity. The class given is biochemical. The method, then: Experimental Example 1: Evaluation of Human mPGES-1 Enzyme Inhibitory Activity
The human mPGES-1 enzyme inhibitory activity of a test article was evaluated according to the report of Xu et al. (XU, D et al. MF63 [2-(6-chloro-1H-phenanthro[9,10-d]imidazol-2-yl)-isophthalonitrile], a selective microsomal prostaglandin E synthase-1 inhibitor relieves pyresis and pain in preclinical models of inflammation. J Pharmacol Exp Ther. September 2008, Vol. 326, No. 3, pages 754-763). The amount of PGE2 produced by human mPGES-1 in the presence of a test article was measured by the HTRF (homogeneous time resolved fluorescence) method, and the human mPGES-1 enzyme inhibitory activity of the test article was determined.
1) Preparation of Human mPGES-1 Expressing Cell Microsome Fraction
A DNA fragment containing human mPGES-1, which is added with a BamHI recognition cleavage sequence just before the translation initiation codon and an EcoRI recognition cleavage sequence just after the translation termination codon, was amplified by the PCR (Polymerase Chain Reaction) method using a human mPGES-1 expression plasmid DNA (pME-18S/iPGES-1) prepared in-house as a template. The purified DNA fragment was digested with BamHI and EcoRI, and ligated to pcDNA3.1(+) (Invitrogen, model number V790-20), similarly_digested with BamHI and EcoRI, by using a DNA Ligation kit ver. 2.1 (Takara Bio, model number 6022). The human mPGES-1 expression plasmid DNA was isolated from Escherichia coli DH5a (TOYOBO, model number DNA-903) transformed with the obtained ligation product. The base sequence of human mPGES-1 cloned to a vector was determined by the Dye Terminator method using BigDye Terminator v3.1 Cycle Sequencing Kit (Applied Biosystems, #4337455). The determined sequence was identical with the sequence of the protein translational region of human mPGES-1 (Accession number NM 004878) registered in the NCBI Reference Database.
Human mPGES-1 expression plasmid DNA was transfected into Chinese hamster ovary-derived cells (FreeStyle CHO-S Cell, Invitrogen, #R^800-07) by using a transgene reagent (FreeStyle MAX Reagent (Invitrogen, #16447-100)), and cultured with shaking (8% CO2, 37° C.) in a medium containing 8 mmol/L L-glutamine (GIBCO FreeStyle CHO Expression Medium, Invitrogen, #12651-022) for 48 hr.
The CHO-S cells were suspended in Homogenate Buffer (100 mmol/L potassium phosphate (pH 7.4), 250 mmol/L Sucrose, 100 mmol/L EDTA, complete EDTA free (Roche, #1873580)). Using an ultrasonic disruptor UD-201 (Tomy Seiko), the suspended cells were disrupted at output:3, duty cycle:50 for 30 seconds. The precipitate was removed by centrifugation (1,000×g, 5 min, 4° C.), and the supernatant was centrifuged (5,000×g, 10 min, 4° C.). The supernatant was further centrifuged (105,000×g, 60 min, 4° C.). The obtained precipitate was suspended in Resuspension Buffer (100 mmol/L potassium phosphate (pH 7.4), 250 mmol/L sucrose, 100 mmol/L EDTA, 10% glycerol) to give a microsome fraction.
The protein concentration of the microsome fraction was measured by the Bradford method (Protein Assay Kit, Bio-Rad). The microsome fraction was rapidly frozen in liquid nitrogen and preserved at −80° C. Human mPGES-1 in the microsome fraction was detected by Western Blot using rabbit anti-mPGES-1 polyclonal antibody (ThermoFisher Scientific, #PA1-10264).
2) Evaluation of Human mPGES-1 Enzyme Inhibitory Activity
A test article solution diluted with 0.1 mol/L potassium phosphate, pH 7.4 (hereinafter to be referred to as KPB) or DMSO (Nacalai Tesque, #13407-45) was added at 5 μL/well to 96 well V-bottom plate (Corning, #3363). The final DMSO concentration during the reaction was set to 2%(v/v). Furthermore, a microsome fraction of CHO-S cells expressing human mPGES-1, which was diluted with reduced GSH (12.5 mmol/L KPB solution, SIGMA, #G6529-25G) such that the protein concentration was 5 μg/mL, was added at 20 μL/well. […]
(In general: In TR-FRET formats the signal depends on donor and acceptor labels being close together.)

[3] abbreviates: Homo sapiens, A549, 18 h, IC50 value, A549 cell, recombinant IL-1β 1 ng/mL, 18 hr, PGE2 in supernatant, read-out: cell PGE2 production inhibitory activity.
The mark [4] stands for this setting: Homo sapiens, A549, A549 cell, recombinant human IL-1β stimulation, read-out: cell PGE2 production inhibitory activity (IC50 value).
The mark [5] stands for this setting: A549 cell, recombinant human IL-1β stimulation, read-out: cell PGE2 production inhibitory activity (IC50 value).

Read-outs that look alike come from different tables or passages of the source. Some results are limits rather than exact numbers.

Regarding `CCC(C)(C)c1cccc(-c2nc(O)nc(-c3cc(CNC(=O)C(C)(C)C(F)(F)F)ccc3Cl)n2)c1` [Example 43], the figures for the IC50 in test [1] (setting [3]) and in test [2] were 6.5 nM and 3.5 nM, respectively.

For `CCCc1cc(-c2nc(O)nc(-c3cc(CNC(=O)C4(C(F)(F)F)CCCCC4)ccc3Cl)n2)cnc1OCC` [Example 72], the results for the IC50 in test [1] (setting [4]) and in test [2] were 5.9 nM and 5.3 nM, respectively.

In the case of `CCC(OC)(C(=O)NCc1ccc(Cl)c(-c2nc(O)nc(-c3cccc(C(C)C)c3)n2)c1)C(F)(F)F` (single isomer, unassigned) [Example 132], the IC50 in test [1] (setting [5]) was 4.8 nM; in test [2] it was 0.8 nM.

In the case of `CCC[C@@H](C)Oc1ccc(-c2nc(O)nc(-c3cc(CNC(=O)C(CC)(OC)C(F)(F)F)ccc3Cl)n2)cn1` (single isomer, unassigned) [Example 143], the IC50 in test [1] (setting [5]) was 1.6 nM; in test [2], 3.9 nM.

For the molecule `CCOc1ccc(-c2nc(O)nc(-c3cc(CNC(=O)C4(C(F)(F)F)CCCCC4)ccc3Cl)n2)cn1` [Example 33], the IC50 was found to be 11 nM in test [1] (setting [3]) and 0.8 nM in test [2].

Consider `CCC[C@H](C)Oc1ccc(-c2nc(O)nc(-c3cc(CNC(=O)C(CC)(OC)C(F)(F)F)ccc3Cl)n2)cn1` (single isomer, unassigned) [Example 145], for which the IC50 in test [1] (setting [5]) is 1.7 nM; in test [2], 4.5 nM.

Turning to `CCC[C@@H](C)Oc1ccc(-c2nc(O)nc(-c3cc(CNC(=O)C4(C(F)F)CCCC4)ccc3Cl)n2)cn1` [Example 126], the figures for the IC50 in test [1] (setting [4]) and in test [2] were 2.5 nM and 3.1 nM, respectively.

In the case of `CCCCCCOc1ccc(-c2nc(O)nc(-c3cc(CNC(=O)C(C)(C)C(F)F)ccc3Cl)n2)cn1` [Example 85], the values for the IC50 in test [1] (setting [4]) and in test [2] were 3.5 nM and 4.9 nM, respectively.

As to `CCC1(C(=O)NCc2ccc(Cl)c(-c3nc(O)nc(-c4cccc(C(C)C)c4)n3)c2)CC1` [Example 8], the IC50 came to 14 nM in test [1] (setting [3]) and 0.7 nM in test [2].

For `CCCOc1cccc(-c2nc(O)nc(-c3cc(CNC(=O)C(C)(C)C(F)(F)F)ccc3Cl)n2)c1` [Example 1], the IC50 in test [1] (setting [3]) turned out to be 27 nM; in test [2], 0.9 nM.

`CC(C)c1cccc(-c2nc(O)nc(-c3cc(CNC(=O)C4(C(F)(F)F)CCCC4)ccc3Cl)n2)c1` [Example 52, 1-trifluoromethylcyclopentanecarboxylic acid 4-chloro-3-[4-hydroxy-6-(3-isopropylphenyl)-1,3,5-triazin-2-yl]benzylamide]: the IC50 in test [1] (setting [3]) is 6 nM; in test [2], 1.1 nM.

In the case of `CCCCCCOc1ccc(-c2nc(O)nc(-c3cc(CNC(=O)C(CC)(CC)OC)ccc3Cl)n2)cn1` [Example 82], the results for the IC50 in test [1] (setting [4]) and in test [2] were 2.2 nM and 7.2 nM, respectively.

Turning to `CC(C)(C)c1cccc(-c2nc(O)nc(-c3cc(CNC(=O)C4(CF)CCCC4)ccc3Cl)n2)c1` [Example 93], the values for the IC50 in test [1] (setting [4]) and in test [2] were 30 nM and 1.3 nM, respectively.

Regarding `CCCOc1cc(C)cc(-c2nc(O)nc(-c3cc(CNC(=O)C(C)(C)C(F)(F)F)ccc3Cl)n2)c1` [Example 10], the IC50 in test [1] (setting [3]) came out at 49 nM; in test [2], 1.7 nM.

Regarding `CCC[C@H](C)Oc1ccc(-c2nc(O)nc(-c3cc(CNC(=O)C(C)(C)CF)ccc3Cl)n2)cn1` [Example 105], the IC50 was 15 nM in test [1] (setting [4]) and 1.5 nM in test [2].

Turning to `CCC(CC)(CF)C(=O)NCc1ccc(Cl)c(-c2nc(O)nc(-c3ccc(Cl)c(C(C)C)c3)n2)c1` [Example 115], the IC50 in test [1] (setting [4]) is 6.6 nM; in test [2], 1.3 nM.

Turning to `O=C(NCc1ccc(Cl)c(-c2nc(O)nc(-c3ccc(OC4CCC4)nc3)n2)c1)C1(C(F)(F)F)CCCCC1` [Example 60], the IC50 in test [1] (setting [3]) came out at 8.3 nM; in test [2], 0.4 nM.

Regarding `CC1(c2cccc(-c3nc(O)nc(-c4cc(CNC(=O)C5(CF)CCCC5)ccc4Cl)n3)c2)CC1` [Example 94], the IC50 stood at 59 nM in test [1] (setting [4]) and 1 nM in test [2].

`CC(C)c1cccc(-c2nc(O)nc(-c3cc(CNC(=O)C4(C(F)F)CCCC4)ccc3Cl)n2)c1` [Example 96]: the IC50 is 61 nM in test [1] (setting [4]) and 0.8 nM in test [2].

As for `COCC(C)(C)C(=O)NCc1ccc(Cl)c(-c2nc(O)nc(-c3cccc(C(C)C)c3)n2)c1` [Example 12], the results for the IC50 in test [1] (setting [3]) and in test [2] were 350 nM and 3.2 nM, respectively.

Consider `CCCc1cc(-c2nc(O)nc(-c3cc(CNC(=O)C(C)(C)C(F)(F)F)ccc3Cl)n2)cnc1OCC` [Example 73], for which the results for the IC50 in test [1] (setting [4]) and in test [2] were above 30 nM and 4.2 nM, respectively. Further, in test [1] (Homo sapiens, A549 cell, IL-1β stimulation, at the highest concentration given (0.03 μM), read-out: cell PGE2 production inhibitory activity (%), printed in parentheses after the > bound), the inhibition at 0.03 µM came to 47%.

As for `CCC[C@H](C)Oc1ccc(-c2nc(O)nc(-c3cc(CNC(=O)C4(CF)CCCCC4)ccc3Cl)n2)cn1` [Example 106], the IC50 in test [1] (setting [4]) was found to be 5 nM; in test [2] it was 3.6 nM.
